Measured values published in ChEMBL document CHEMBL5715945 (Cancer Biol Ther, 2010).
The source made the active and inactive calls. No cut-off for these calls is given here.

Legend:
4T1 [1] = test: Effect on p130Cas phosphorylation at Tyr249 residue in mouse 4T1 cells harbouring mCherry red fluorescent protein at 0.1 to 1 uM incubated for 1 hr by immunoblotting analysis; type: functional, cell-based; settings: dose 0.1-1 µM
4T1 [2] = test: Inhibition of cell migration in mouse 4T1 cells assessed as wound closure at 1 uM incubated for 22 hrs by wound healing assay (reference value: 89%); type: functional; set-up: scale not given: the % may be the effect or the level left
4T1 [3] = test: Induction of apoptosis in mouse 4T1 adherent cells at 0.1 to 1 uM incubated for 24 to 48 hrs by PI staining based flow cytometry analysis; type: functional, cell-based; settings: dose 0.1-1 µM, time 24-48 hrs
4T1 [4] = test: Induction of cell cycle arrest in mouse 4T1 adherent cells assessed as accumulation at G0/G1 phase at 1 uM measured after 72 hrs by PI staining based flow cytometry analysis (reference value: 76.8%); type: functional
[5] = molecular target: Focal adhesion kinase 1 (Mus musculus) (UniProt P34152); test: Inhibition of FAK phosphorylation at Y397 residue in mouse 4T1 suspended cells at 0.1 uM incubated for 24 hrs by immunoblotting analysis; type: cell-based
4T1 [6] = test: Induction of apoptosis in mouse 4T1 suspended cells assessed as increase in cleaved caspase 3 expression at 0.4 uM incubated for 24 hrs by immunoblotting analysis; type: functional, cell-based
4T1 [7] = test: Induction of apoptosis in mouse 4T1 adherent cells assessed as increase in cleaved caspase 3 expression at 0.4 uM incubated for 24 hrs by immunoblotting analysis; type: functional, cell-based
4T1 [8] = test: Effect on p130Cas phosphorylation in mouse 4T1 cultured as […] at 0.1 to 1 uM incubated for 24 hrs by immunoblotting analysis; type: functional, cell-based; settings: dose 0.1-1 µM
4T1 [9] = test: Induction of apoptosis in mouse 4T1 cells assessed as increase in cell apoptosis at 0.1 to 1 uM measured after 2 days by visual analysis; type: functional; settings: dose 0.1-1 µM, time 2 day
4T1 [10] = test: Induction of apoptosis in mouse 4T1 cells assessed as increase in cell shrinkage at 0.4 to 1 uM measured after 2 days by phase contrast microscopy analysis; type: functional, cell-based; settings: dose 0.4-1 µM, time 2.0 day
4T1 [11] = test: Antitumor activity against mouse 4T1 cells harbouring mCherry red fluorescent protein implanted in BALB/c mouse assessed as fold reduction in tumor weight at 100 mg/kg, sc bid measured after 5 days; type: functional; settings: time 5 day
ID8 = test: Antitumor activity against mouse ID8 suspended cells assessed as reduction in cell viability at 0.1 to 1 uM measured after 15 days by trypan blue staining based analysis; type: functional; settings: dose 0.1-1 µM, time 15.0 day
[12] = molecular target: Tyrosine-protein kinase ABL1 (Homo sapiens) (UniProt P00519); test: Inhibition of Abl (unknown origin) at 1 uM relative to control; values are per cent of control
[13] = molecular target: Vascular endothelial growth factor receptor 2 (Homo sapiens) (UniProt P35968); test: Inhibition of KDR (unknown origin) at 1 uM relative to control; values are per cent of control
[14] = molecular target: Rho-associated protein kinase 1 (Homo sapiens) (UniProt Q13464); test: Inhibition of ROCK1 (unknown origin) at 1 uM relative to control; values are per cent of control
[15] = molecular target: Epidermal growth factor receptor (Homo sapiens) (UniProt P00533); test: Inhibition of EGFR (unknown origin) at 0.1 uM relative to control; values are per cent of control
[16] = molecular target: Mitogen-activated protein kinase 1 (Homo sapiens) (UniProt P28482); test: Inhibition of MAPK1 (unknown origin) at 0.1 uM relative to control; values are per cent of control
[17] = molecular target: Platelet-derived growth factor receptor beta (Homo sapiens) (UniProt P09619); test: Inhibition of PDGFRb (unknown origin) at 0.1 uM relative to control; values are per cent of control
[18] = molecular target: Aurora kinase A (Homo sapiens) (UniProt O14965); test: Inhibition of Aurora-A (unknown origin) at 0.1 uM relative to control; values are per cent of control
Homo sapiens = organism: Homo sapiens; test: Inhibition of CDK2/cyclin A (unknown origin) at 0.1 uM relative to control; values are per cent of control

Focal adhesion kinase 1 (Mus musculus), sequence (P34152 whole entry): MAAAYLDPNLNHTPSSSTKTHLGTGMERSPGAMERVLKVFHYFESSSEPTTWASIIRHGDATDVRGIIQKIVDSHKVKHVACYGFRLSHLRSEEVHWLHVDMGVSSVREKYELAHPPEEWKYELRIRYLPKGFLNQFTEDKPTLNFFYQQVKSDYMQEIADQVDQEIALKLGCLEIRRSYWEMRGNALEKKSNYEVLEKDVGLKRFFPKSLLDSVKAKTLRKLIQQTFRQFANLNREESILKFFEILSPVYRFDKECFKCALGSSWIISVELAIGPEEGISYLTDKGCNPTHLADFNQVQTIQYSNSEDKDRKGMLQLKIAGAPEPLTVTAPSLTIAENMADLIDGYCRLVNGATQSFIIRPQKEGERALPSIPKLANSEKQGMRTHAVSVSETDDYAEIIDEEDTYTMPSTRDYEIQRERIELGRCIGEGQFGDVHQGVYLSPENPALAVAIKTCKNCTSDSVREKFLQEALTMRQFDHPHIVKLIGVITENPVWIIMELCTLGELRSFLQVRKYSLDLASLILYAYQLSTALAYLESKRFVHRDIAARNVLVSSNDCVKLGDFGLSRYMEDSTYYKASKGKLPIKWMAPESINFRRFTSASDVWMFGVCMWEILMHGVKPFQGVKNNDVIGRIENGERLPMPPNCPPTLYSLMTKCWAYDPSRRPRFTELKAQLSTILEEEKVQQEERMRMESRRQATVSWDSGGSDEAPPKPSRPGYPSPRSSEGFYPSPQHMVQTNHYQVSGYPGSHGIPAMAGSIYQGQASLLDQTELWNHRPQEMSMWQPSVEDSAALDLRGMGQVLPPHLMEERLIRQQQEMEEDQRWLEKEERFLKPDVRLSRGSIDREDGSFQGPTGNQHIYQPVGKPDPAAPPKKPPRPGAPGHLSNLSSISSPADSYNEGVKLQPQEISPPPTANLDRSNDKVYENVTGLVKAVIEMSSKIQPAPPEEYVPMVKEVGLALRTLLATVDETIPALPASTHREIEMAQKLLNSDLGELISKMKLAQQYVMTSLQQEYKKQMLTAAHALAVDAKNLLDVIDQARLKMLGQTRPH
Epidermal growth factor receptor (Homo sapiens), sequence (P00533 whole entry): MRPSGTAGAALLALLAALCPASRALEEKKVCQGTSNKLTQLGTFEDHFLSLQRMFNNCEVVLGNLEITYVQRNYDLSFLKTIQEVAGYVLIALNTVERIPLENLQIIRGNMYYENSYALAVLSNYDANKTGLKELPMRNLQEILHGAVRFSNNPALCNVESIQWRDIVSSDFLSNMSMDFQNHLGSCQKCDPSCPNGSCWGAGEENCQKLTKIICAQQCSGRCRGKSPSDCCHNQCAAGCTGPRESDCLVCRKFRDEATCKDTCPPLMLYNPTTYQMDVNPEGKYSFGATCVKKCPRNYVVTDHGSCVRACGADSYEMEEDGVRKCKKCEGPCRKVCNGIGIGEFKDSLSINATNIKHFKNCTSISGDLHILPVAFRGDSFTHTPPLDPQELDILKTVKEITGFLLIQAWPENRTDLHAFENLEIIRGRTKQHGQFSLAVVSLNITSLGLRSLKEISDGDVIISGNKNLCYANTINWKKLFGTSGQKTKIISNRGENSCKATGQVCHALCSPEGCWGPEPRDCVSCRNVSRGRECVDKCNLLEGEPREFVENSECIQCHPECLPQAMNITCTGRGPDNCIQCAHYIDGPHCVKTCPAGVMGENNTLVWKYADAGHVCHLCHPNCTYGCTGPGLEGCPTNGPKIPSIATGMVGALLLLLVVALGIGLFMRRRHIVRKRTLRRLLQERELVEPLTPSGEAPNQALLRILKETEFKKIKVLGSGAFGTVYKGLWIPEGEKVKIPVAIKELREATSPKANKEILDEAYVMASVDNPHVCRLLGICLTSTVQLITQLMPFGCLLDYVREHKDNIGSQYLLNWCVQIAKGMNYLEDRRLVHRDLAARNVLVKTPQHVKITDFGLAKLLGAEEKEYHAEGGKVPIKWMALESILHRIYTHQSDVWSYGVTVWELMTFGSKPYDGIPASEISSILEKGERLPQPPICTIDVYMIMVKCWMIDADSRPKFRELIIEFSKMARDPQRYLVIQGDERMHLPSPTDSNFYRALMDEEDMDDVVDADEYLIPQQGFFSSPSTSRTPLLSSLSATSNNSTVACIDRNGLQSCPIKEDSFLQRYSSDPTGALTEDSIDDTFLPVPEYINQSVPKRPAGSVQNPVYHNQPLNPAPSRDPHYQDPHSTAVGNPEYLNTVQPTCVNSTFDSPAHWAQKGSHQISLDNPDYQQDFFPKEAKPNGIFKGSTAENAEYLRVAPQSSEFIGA
Rho-associated protein kinase 1 (Homo sapiens), sequence (Q13464 2-1354 limits assumed): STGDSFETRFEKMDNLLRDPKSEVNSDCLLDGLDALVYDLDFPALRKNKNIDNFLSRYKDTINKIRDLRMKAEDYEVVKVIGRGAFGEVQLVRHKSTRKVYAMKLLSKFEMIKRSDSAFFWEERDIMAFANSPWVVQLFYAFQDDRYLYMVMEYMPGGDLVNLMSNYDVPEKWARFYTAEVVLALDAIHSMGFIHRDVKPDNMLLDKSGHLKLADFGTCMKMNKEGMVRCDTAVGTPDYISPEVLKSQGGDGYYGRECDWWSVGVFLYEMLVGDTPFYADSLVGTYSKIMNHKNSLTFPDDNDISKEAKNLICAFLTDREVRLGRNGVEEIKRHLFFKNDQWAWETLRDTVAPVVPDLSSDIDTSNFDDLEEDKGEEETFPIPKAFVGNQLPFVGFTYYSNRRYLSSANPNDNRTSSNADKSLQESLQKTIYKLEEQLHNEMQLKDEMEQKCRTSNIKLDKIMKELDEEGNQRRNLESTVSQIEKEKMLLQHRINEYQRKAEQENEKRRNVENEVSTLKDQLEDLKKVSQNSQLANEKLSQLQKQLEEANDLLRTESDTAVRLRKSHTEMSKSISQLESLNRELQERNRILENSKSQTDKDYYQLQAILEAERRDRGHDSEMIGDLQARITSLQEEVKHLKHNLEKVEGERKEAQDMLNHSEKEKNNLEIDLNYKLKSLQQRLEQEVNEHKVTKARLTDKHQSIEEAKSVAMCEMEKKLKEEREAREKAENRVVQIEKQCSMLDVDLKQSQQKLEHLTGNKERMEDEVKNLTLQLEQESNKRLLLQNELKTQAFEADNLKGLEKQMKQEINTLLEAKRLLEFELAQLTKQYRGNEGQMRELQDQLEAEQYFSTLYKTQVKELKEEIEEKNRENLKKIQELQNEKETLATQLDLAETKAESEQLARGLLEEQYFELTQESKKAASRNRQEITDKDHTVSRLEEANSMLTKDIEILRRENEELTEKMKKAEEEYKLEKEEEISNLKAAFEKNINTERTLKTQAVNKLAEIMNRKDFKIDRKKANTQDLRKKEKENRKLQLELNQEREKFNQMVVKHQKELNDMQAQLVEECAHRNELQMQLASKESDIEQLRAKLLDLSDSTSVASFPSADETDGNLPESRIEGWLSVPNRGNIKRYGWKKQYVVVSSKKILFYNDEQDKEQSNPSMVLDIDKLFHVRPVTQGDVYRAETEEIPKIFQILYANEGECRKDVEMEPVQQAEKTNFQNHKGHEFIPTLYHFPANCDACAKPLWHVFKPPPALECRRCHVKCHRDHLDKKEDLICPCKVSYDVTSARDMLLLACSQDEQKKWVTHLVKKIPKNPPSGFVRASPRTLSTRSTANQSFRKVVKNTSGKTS
Vascular endothelial growth factor receptor 2 (Homo sapiens), sequence (P35968 whole entry): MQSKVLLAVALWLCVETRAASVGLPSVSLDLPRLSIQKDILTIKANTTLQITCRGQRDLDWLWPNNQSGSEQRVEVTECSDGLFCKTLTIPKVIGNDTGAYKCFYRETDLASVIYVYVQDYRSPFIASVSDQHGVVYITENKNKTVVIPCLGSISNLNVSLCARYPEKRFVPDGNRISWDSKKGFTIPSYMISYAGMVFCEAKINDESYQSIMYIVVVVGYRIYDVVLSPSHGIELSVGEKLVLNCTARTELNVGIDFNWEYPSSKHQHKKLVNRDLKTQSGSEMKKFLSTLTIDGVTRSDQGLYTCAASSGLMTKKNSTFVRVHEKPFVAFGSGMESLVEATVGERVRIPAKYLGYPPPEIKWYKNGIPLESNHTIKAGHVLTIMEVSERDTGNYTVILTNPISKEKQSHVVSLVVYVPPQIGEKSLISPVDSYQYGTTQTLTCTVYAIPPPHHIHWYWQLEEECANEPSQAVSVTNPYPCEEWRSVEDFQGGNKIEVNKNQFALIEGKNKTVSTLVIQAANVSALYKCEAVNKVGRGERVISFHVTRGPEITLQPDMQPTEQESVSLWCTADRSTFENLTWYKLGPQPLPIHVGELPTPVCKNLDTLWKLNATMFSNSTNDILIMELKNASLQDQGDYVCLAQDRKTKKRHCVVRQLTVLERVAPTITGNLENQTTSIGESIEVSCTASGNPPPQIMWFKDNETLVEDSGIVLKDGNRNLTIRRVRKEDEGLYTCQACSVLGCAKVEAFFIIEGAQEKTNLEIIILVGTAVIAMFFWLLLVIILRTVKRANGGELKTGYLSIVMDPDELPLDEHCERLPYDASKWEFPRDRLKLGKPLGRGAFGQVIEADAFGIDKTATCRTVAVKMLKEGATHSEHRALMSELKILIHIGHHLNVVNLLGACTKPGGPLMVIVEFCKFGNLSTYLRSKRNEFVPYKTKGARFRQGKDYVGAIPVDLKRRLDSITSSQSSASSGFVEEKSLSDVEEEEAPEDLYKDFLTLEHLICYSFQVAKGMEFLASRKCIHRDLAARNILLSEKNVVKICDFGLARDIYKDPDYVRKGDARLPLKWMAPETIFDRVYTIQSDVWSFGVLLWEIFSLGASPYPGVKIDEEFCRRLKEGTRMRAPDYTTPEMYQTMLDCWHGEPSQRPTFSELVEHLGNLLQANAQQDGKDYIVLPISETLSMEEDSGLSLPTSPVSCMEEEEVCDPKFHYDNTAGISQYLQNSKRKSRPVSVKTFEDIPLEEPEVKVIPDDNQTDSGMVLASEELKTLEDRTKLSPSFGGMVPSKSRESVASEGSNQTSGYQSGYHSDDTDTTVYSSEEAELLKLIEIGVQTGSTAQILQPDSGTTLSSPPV

inhibition [5]: Active | residual activity [12]: 112% | residual activity [13]: 107% | residual activity [14]: 90% | residual activity [15]: 99% | residual activity [16]: 78% | residual activity [17]: 98% | residual activity [18]: 69% | residual activity (Homo sapiens): 91%
Compound: CNC(=O)c1ccccc1Nc1cc(Nc2ccc(N3CCOCC3)cc2OC)ncc1C(F)(F)F [VS-4718]
Activity (4T1 [1]): inactive | Activity (4T1 [2]): 40% | Activity (4T1 [3]): inactive | Activity (4T1 [4]): 65.7% | Activity (4T1 [6]): Active | Activity (4T1 [7]): inactive | Activity (4T1 [8]): inactive | Activity (4T1 [9]): >50% | Activity (4T1 [10]): Active | fold change (FC) (4T1 [11]): 2 | Activity (ID8): Active
